Values of other authors, collected in patent publication US20050137198A1, “Stable hydrazalazine pharmaceutical compositions” (priority 2003, published 2005).
Read-outs that look alike come from different tables or passages of the source.

System: vascular smooth muscle

Question: For NNc1nncc2ccccc12 [Hydralazine, 1-hydrazinophthalazine], which onset of action (given intravenously) is on record?
Answer: Its onset of action is 10 to 20 min.

Question: What about the duration of action (in vivo) of the same compound?
Answer: The duration of action was 3 to 4 h.

Question: What about the onset of action (in vivo) of the same compound?
Answer: The onset of action was 10 to 30 min.

Question: And the “time of maximum hypotensive effect” value (in vivo)?
Answer: Its value is 10 to 80 min.
